# Results from patent publication US12171230B2, “Herbicidal compositions” (Bayer Aktiengesellschaft, priority 2018, dated 2024).
# What was measured:
# Type in all cases: in vivo
# [1] = tested on: Poa annua; assay: Post-emergence herbicidal action against Poa annua; settings: 1 g of a.i./ha
# Procedure: (§1) When the observed efficacies exceed the formal sum total of the values of the tests with individual applications, they also exceed the expected value according to Colby, which is calculated using the formula below and is likewise regarded as an indication of synergism (cf. S. R. Colby; in Weeds 15 (1967) p. 20 to 22): E^C=A+B−([…])
# (§2) Here: • A=efficacy of the active compound (A) in % at an application rate of a g a.i./ha; • B=efficacy of the active compound (B) in % at an application rate of b g a.i./ha; • E^C=expected value of the effect of the combination (A)+(B) in % at the combined application rate a+b g a.i./ha.
# (§3) Seeds or rhizome pieces of mono- and dicotyledonous weeds are placed in sandy loam in pots, covered with soil and grown in a greenhouse under good growth conditions (temperature, air humidity, water supply). Three weeks after sowing, the test plants were treated at the three-leaf stage with the compositions according to the invention. The compositions according to the invention formulated as spray powders or as emulsion concentrates were sprayed onto the green plant parts in various dosages with an application rate of 300 to 800 l/ha of water (equivalent). After the test plants have been left to stand in the greenhouse under optimal growth conditions for about 3 to 4 weeks, the action of the preparations is scored visually in comparison to untreated controls. The compositions according to the invention also have good post-emergence herbicidal activity against a broad spectrum of economically important gramineous and broadleaf weeds.
# [2] = tested on: Veronica hederifolia; assay: Post-emergence herbicidal action against Veronica hederifolia; settings: 1 g of a.i./ha
# Excerpt: (§4) The following abbreviations are used in the description and the tables that follow: • g of a.i./ha=grams of active substance (active ingredient) (=100% active compound) per hectare; • The sum total of the effects of the individual applications is reported under E^A; • expected values according to Colby are each reported under E^C.
# (§5) The rating period is reported in days after application (DAT).
# [3] = tested on: Bromus sterilis; assay: Post-emergence herbicidal action against Bromus sterilis
# Excerpt: as §4, §5
# [4] = tested on: Lolium rigidum; assay: Post-emergence herbicidal action against Lolium rigidum
# Excerpt: as §4, §5
# [5] = tested on: Galium aparine; assay: Post-emergence herbicidal action against Galium aparine
# Procedure: as §1, §2, §3
# [6] = tested on: Alopecurus myosuroides; assay: Post-emergence herbicidal action against Alopecurus myosuroides
# Excerpt: as §4, §5
# [7] = tested on: Lolium rigidum (resistant biotype); assay: Post-emergence herbicidal action against Lolium rigidum (resistant biotype)
# Excerpt: as §4, §5
# [8] = tested on: Viola tricolor; assay: Post-emergence herbicidal action against Viola tricolor
# Excerpt: as §4, §5
# [9] = tested on: Phalaris minor; assay: Post-emergence herbicidal action against Phalaris minor
# Excerpt: as §4, §5
# [10] = tested on: Matricaria inodora; assay: Post-emergence herbicidal action against Matricaria inodora; settings: 1 g of a.i./ha
smiles,measurement,setting,value
COc1cc(OC)nc(NC(=O)NS(=O)(=O)c2cc(NC=O)ccc2C(=O)N(C)C)n1 [(B2.31) Foramsulfuron],Herbicidal action 28 DAT against Poa annua L.,[1],40%
same,Herbicidal action 14 DAT against Veronica hederifolia,[2],80%
same,Herbicidal action 14 DAT against Bromus sterilis,[3]; 1 g of a.i./ha,65%
same,Herbicidal action 14 DAT against Bromus sterilis,[3]; 3 g of a.i./ha,85%
same,Herbicidal action 28 DAT against Bromus sterilis,[3]; 3 g of a.i./ha,25%
same,Herbicidal action 14 DAT against Bromus sterilis,[3]; 9 g of a.i./ha,85%
same,Herbicidal action 28 DAT against Bromus sterilis,[3]; 9 g of a.i./ha,60%
same,Herbicidal action 28 DAT against Lolium rigidum,[4]; 3 g of a.i./ha,35%
same,Herbicidal action 28 DAT against Lolium rigidum,[4]; 9 g of a.i./ha,65%
same,Herbicidal action 28 DAT against Galium aparine,[5]; 1 g of a.i./ha,0%
same,Herbicidal action 28 DAT against Galium aparine,[5]; 9 g of a.i./ha,65%
same,Herbicidal action 14 DAT against Alopecurus myosuroides,[6]; 1 g of a.i./ha,80%
same,Herbicidal action 28 DAT against Alopecurus myosuroides,[6]; 1 g of a.i./ha,40%
same,Herbicidal action 28 DAT against Alopecurus myosuroides,[6]; 3 g of a.i./ha,80%
same,Herbicidal action 28 DAT against Alopecurus myosuroides,[6]; 9 g of a.i./ha,85%
same,Herbicidal action 14 DAT against Lolium rigidum (resistant biotype),[7]; 3 g of a.i./ha,15%
same,Herbicidal action 28 DAT against Lolium rigidum (resistant biotype),[7]; 3 g of a.i./ha,10%
same,Herbicidal action 14 DAT against Lolium rigidum (resistant biotype),[7]; 9 g of a.i./ha,15%
same,Herbicidal action 28 DAT against Lolium rigidum (resistant biotype),[7]; 9 g of a.i./ha,20%
same,Herbicidal action 28 DAT against Viola tricolor,[8]; 1 g of a.i./ha,65%
same,Herbicidal action 28 DAT against Viola tricolor,[8]; 3 g of a.i./ha,80%
same,Herbicidal action 14 DAT against Phalaris minor,[9]; 3 g of a.i./ha,85%
same,Herbicidal action 28 DAT against Phalaris minor,[9]; 3 g of a.i./ha,40%
same,Herbicidal action 14 DAT against Phalaris minor,[9]; 9 g of a.i./ha,80%
same,Herbicidal action 28 DAT against Phalaris minor,[9]; 9 g of a.i./ha,20%
same,Herbicidal action 14 DAT against Matricaria inodora,[10],70%
same,Herbicidal action 28 DAT against Matricaria inodora,[10],30%
